Reference: patent US8399466B2, “Composition for regenerative treatment of cartilage disease” (Mitsubishi Tanabe Pharma Corporation, priority 2001, dated 2013)

How the values were obtained:
[1] = test system: articular chondrocytes; assay: Increase of matrix production of articular chondrocytes (Alcian blue staining of proteoglycan); type: cell-based, rabbit; conditions: for Proteoglycan Production (%): cultivation until day 5, vehicle = 100; for matrix production promoting activity: summary of Table 1
Experimental: Four NZW line rabbits (Kitayama Labes., Co Ltd.; male; 4-week-old) were sacrificed with bleeding under ether anesthesia and femur knee joints were collected aseptically. The collected knee joints were stored in phosphate buffer (pH 7.2) containing 0.2% glucose and only the cortical layer of knee joint was scrapped with a surgical knife into a 50 ml tube containing phosphate buffer (pH 7.2) containing 0.2% glucose. The collected knee joint cortical layer was cut into as small sections as possible on a dish with a razor and shaken at 37° C. for 15 minutes in phosphate buffer containing 0.2% glucose, supplied with 10× trypsin-ethylenediamine tetraacetic acid (EDTA)·4 Na salt (GIBCO; Cat. No. 15400-054) (50 ml, with 100 mg of trypsin and 40 mg of EDTA·4Na; pH 7.2). After shaking, the sample was centrifuged (1,400 rpm) to collect precipitates, and the precipitates were washed twice with 40 ml of phosphate buffer containing 0.2% glucose. The washed precipitates were combined with 40 ml of serum-free α-minimum essential medium (MEM: GIBCO; Cat: No. 12571-063) containing 60 mg of collagenase for cell diffusion (Wako Pure Chemical Industries, Ltd., 034-10533) and transferred to a 100 ml beaker containing a sterilized stirrer bar. Under stirring with the stirrer bar, the collagenase digestion was carried on for about 1 hour in a CO2 incubator at 37° C. Cartilage fragments were removed from the collagenase-treated cells using a […] Cell Strainer ([FALCON; Cat. No. 2340]). To the residual treated cells was added 10 ml of α-MEM medium containing 10% fetal calf serum (FCS), and centrifuged (1,400 rpm). The precipitates were washed with 10% FCS-αMEM medium twice, suspended in appropriate volume of the same medium and the resultant suspension was seeded into collagen type II (Wako Pure Chemical Industries, Ltd., 033-13901)-coated plates (48 well) at 20,000 cells/well. On the next day, the medium was replaced with 10% FCS-αMEM medium.
When cells reached to confluent after the medium exchange procedure above, the medium for test group was replaced with test compound-containing medium (including 0.1% dimethylsulfoxide as a vehicle). As a medium to which a test compound is added, 10% FCS-αMEM medium containing 0.2 mM ascorbic acid was used. The day on which test compound-containing medium was added for the first time was defined as “day 1”. The medium exchange with the same medium was again conducted at day 3 and the cultivation continued until day 5. As to the control group, the medium was exchanged at the same time using the same medium as the test group except that it is free of test compound (containing vehicle only), and the cultivation was carried out in the same manner. After completion of cultivation, the supernatant was removed from the culture medium. Cells were fixed by addition of 0.25 ml of neutral buffer containing 4% paraformaldehyde and incubation for 2 hours. Cells were washed three times with 1 ml of phosphate buffer (pH 7.2) and then stained for 4 hours with 0.1% Alcian blue 8GX (Sigma; A3157) dissolved in 0.1 M hydrochloric acid, which Alcian blue selectively stains cartilage matrix proteoglycan. After staining, the cells were washed 3 times with 1 ml of phosphate buffer (pH 7.2). Alcian blue which had stained cartilage matrix was dissolved with 0.25 ml of aqueous 6 M guanidine hydrochloride solution and a portion of the solution was used to determine the absorbance at 620 nm. The amounts of Alcian blue used for staining was calculated from the absorbance, which in turn was used for the estimation of the amount of matrix (proteoglycan).

[2] = test system: cAMP hydrolytic PDE expressed in human articular cartilage (fraction Nos. 28-30); assay: Inhibition of cAMP hydrolyzing activity of fraction Nos. 28-30 of human articular cartilage extract; type: biochemical
Experimental: From the human knee articular cartilage was isolated on surgery of osteoarthrosis patients. Cartilage portion was scrapped with a surgery knife, washed with ice-cold phosphate buffer and stored at −80° C. The cartilage tissues were milled at −80° C. and then, scattered into pieces with homogenizer (Kinematica A.G., Polytron) in ice-cold homogenization buffer (20 mM Tris-HCl, pH 8.0, 1 mM ethylene glycol bis(β-aminoethylether)-N,N,N′,N′-tetraacetic acid, 1 mM dithiothreitol, 10 μg/ml leupeptin, 5 mM benzamidine, 0.2 mM phenylmethylsulfonyl fluoride, 1 mM sodium azide and 5 mM mercaptoethanol). The resultant homogenate was centrifuged (100,000×g; 30 minutes) to separate supernatant.
The above supernatant was loaded on a Mono Q Sepharose High Performance column (Amersham Pharmacia Biotech) equilibrated with elution buffer (20 mM Tris-HCl, pH 8.0, 1 mM ethylene glycol bis(β-aminoethylether)-N,N,N′,N′-tetraacetic acid, 1 mM dithiothreitol, 2 μg/ml leupeptin, 5 mM benzamidine). After washing the column with 20 ml of elution buffer, proteins were eluted into 1 ml fractions by aqueous sodium chloride solution (concentration gradient: 0 to 1000 mM, 70 ml) under ice-cooling. Each fraction was subjected to the determination of hydrolytic activity (PDE activity) toward cAMP and cGMP as a substrate.
The determination of PDE activity was performed by a radio-labeled nucleic acid assay. That is, the reaction was initiated by adding from 10 to 50 μl of elution fraction to 500 μl of assay buffer (50 mM Tris-HCl, pH 8.0, 5 mM magnesium chloride, 4 mM 2-mercaptoethanol) containing 1 μM of unlabeled cAMP and 22 nM of [^3H]-cAMP (Amersham Pharmacia Biotech).
After incubation at 37° C. for 30 minutes, the reaction was quenched by boiling for 1.5 minutes. Then, 100 μl of 1 mg/ml Crtalus atrox snake venom was added and incubated at 37° C. for 30 minutes. After addition of 500 μl of methanol, the reaction solution was subjected to Dowex column (1×8-400). To each eluate was added a liquid scintillation cocktail and the radio activity was measured.
The inhibitory activity of PDE4 inhibitor on fraction Nos. 28-30 containing potent cAMP hydrolyzing activity was measured according to the above-mentioned radio-labeled nucleic acid assay. The test compounds are Compound (1), Compound (2), Compound (11), Compound (44) and Compound (27).

[3] = test system: aggrecan gene; assay: Expression of gene encoding cartilage matrix protein (Northern hybridization), aggrecan; type: cell-based, rabbit; conditions: cultured 4 days, control = 100%
Experimental: (§1) Total RNA was extracted with ISOGEN (Nippon Gene Co., Ltd.) from rabbit knee articular chondrocytes cultured for 4 days according to the same manner as Experimental Example 1 in the presence of Compound (1) at a final concentration of 1×10^−4 M or 1×10^−5 M, and 15 μg of the total RNA was dissolved in 4.5 μl of a sterilized water. This solution was combined with 2 μl of 5×MOPS buffer, 3.5 μl of formaldehyde and 10 μl of formamide, and denatured at 90° C. for 15 minutes. The mixture was then electrophoresed on 1% agarose gel in the presence of formaldehyde. After completion of electrophoresis, RNA was transferred to a nylon membrane (Amersham Pharmacia Biotech) overnight by capillary method. The RNA was fixed to the nylon membrane by UV crosslinking and subjected to prehybridization at 60° C. for 2 hours in 50 ml of hybridization solution (6×SSC, 5×Denhart's solution, 0.5% SDS, 100 μg/ml heat-denatured salmon sperm DNA, free of 50% formamide).
(§2) Then, DNA probes of mouse type II collagen gene and human aggrecan. […] The nylon membrane was subjected to an autoradiography and exposed to X-ray film using LAS-1000 (Fuji Photo Film Co., Ltd.) A relative amount of each RNA was measured using Image Gause (Fuji Photo Film Co., Ltd.) and corrected with […] (internal RNA: internal control). The gene expression rate in test group was calculated by assuming that in control group as 100%.

[4] = test system: type II collagen gene; assay: Expression of gene encoding cartilage matrix protein (Northern hybridization), type II collagen; type: cell-based, rabbit; conditions: cultured 4 days, control = 100%
Experimental: as §1, §2

[5] = test system: rabbit articular chondrocytes; assay: Matrix production of rabbit articular chondrocytes in the presence of IL-1; type: cell-based; conditions: 1 × 10^−6 M; IL-1β 1 ng/ml; until day 3; vehicle = 100
Experimental: Four NZW line rabbits (Kitayama Labes., Co Ltd.; male; 4-week-old) were sacrificed with bleeding under ether anesthesia and knee joints of femur side were collected aseptically. Only the cortical layer was scrapped with a surgical knife in phosphate buffer (pH 7.2) containing 0.2% glucose and then placed into a 50 ml tube containing phosphate buffered saline containing 0.2% glucose. The collected knee joint cortical layer was cut into as small sections as possible on a dish with a razor, combined with 50 ml of phosphate buffer (100 mg trypsin, 40 mg EDTA·4 Na; pH 7.2) containing 0.2% glucose, supplied with 10× trypsin-ethylenediamine tetraacetic acid tetra sodium salt (EDTA·4Na: GIBCO; Cat. No. 15400-054) and shaken at 37° C. for 15 minutes.
After shaking, the precipitates were collected by centrifugation (1,400 rpm) and washed twice with 40 ml of phosphate buffer (pH 7.2) with 0.2% glucose.
To the washed precipitates was added 40 ml of α-minimum essential medium (MEM: GIBCO; Cat. No. 12571-063) containing 60 mg of collagenase for cell diffusion (Wako Pure Chemical Industries, Ltd., 034-10533) and antibiotics (200 U/ml penicillin G and 200 μg/ml streptomycin sulfate) (GIBCO; Cat. No. 15140-122), and the mixture was transferred to a 100 ml beaker containing a sterilized stirrer bar.
The incubation was conducted in a CO2 incubator at 37° C. for 30 minutes under stirring with a stirrer bar. Deoxyribonuclease I (Takara Shuzo Co., LTD.; Cat. No. 2210A) was then added at a concentration of 70 U/ml. The cultivation was conducted under the same condition for another 30 minutes. The supernatant of the culture was collected in another vessel and the remaining cartilage slips were then cultured again for about 30 minutes in freshly prepared α-minimum essential medium containing 60 mg of collagenase and 70 U/m1 deoxyribonuclease I.
To the previously collected culture supernatant and the last culture, from which cartilage slips had been removed using a 40 μm Cell Strainer (FALCON; Cat. No. 2340), 10 ml of α-minimum essential medium (MEM: GIBCO; Cat. No. 12571-063) containing 10% fetal calf serum (GIBCO Cat. No. 10099-141) and antibiotics (200 U/ml penicillin G and 200 μg/ml streptomycin sulfate) (GIBCO; Cat. No. 15140-122) was added and centrifuged (1,400 rpm, 10 minutes).
The precipitates were washed twice with α-minimum essential medium containing 10% fetal calf serum and antibiotics, suspended with an appropriate volume of the same medium, and seeded into 48-well plates (20,000 cells/well). […]
After staining, the cells were washed 3 times with 1 ml of phosphate buffer (pH 7.2). Alcian blue which had stained cartilage matrix was dissolved with 0.25 ml of 6 M aqueous guanidine hydrochloride solution and a portion of which was used to determine the absorbance at 620 nm. […]

| SMILES | Proteoglycan Production (%) ([1]; 1 × 10^−5 M) | matrix production promoting activity [1] | Proteoglycan Production (%) ([1]; 1 × 10^−6 M) | Proteoglycan Production (%) [5] | also measured |
| --- | --- | --- | --- | --- | --- |
| CCOc1cc2cc(CO)c(CO)c(-c3ccn(CCOC)c(=O)c3)c2cc1OCC [Compound (1)] | 133% | exert matrix production promoting activity | – | – | Proteoglycan Production (%) ([1]; 1 × 10^−4 M): 144%; inhibition of the hydrolytic activity of the fraction ([2]; fraction Nos. 28-30, FIG. 4): inhibits the hydrolytic activity of the fraction strongly; IC50 for fraction(s) ([2]; method of Journal of Medicinal Chemistry, vol. 42, 1088-1099 (1999), values only in FIG. 4): consistent with the IC50 of PDE4 inhibition activity described in the same literature; Expression of aggrecan gene (%) ([3]; 10^−4 M): 4262%; Expression of aggrecan gene (%) ([3]; 10^−5 M): 2693%; Expression of Type II collagen gene (%) ([4]; 10^−4 M): 406%; Expression of Type II collagen gene (%) ([4]; 10^−5 M): 278% |
| COc1ccc(/C(C)=N/OC(N)=O)cc1OC1CCCC1 [Compound (9)] | 138% | exert matrix production promoting activity | 128% | – | – |
| COc1ccc([C@H](Cc2ccncc2)c2ccccc2)cc1OC1CCCC1 [Compound (21)] | 120% | exert matrix production promoting activity | 115% | – | – |
| COc1ccc([C@]2(C#N)CC[C@H](C(=O)O)CC2)cc1OC1CCCC1 [Compound (27)] | 131% | exert matrix production promoting activity | 129% | – | – |
| COc1cc2c(cc1OC)C(c1ccnc(-n3ccc4c(OCCN5CCOCC5)cccc4c3=O)c1)=N[C@H](CO)C2 [Compound No. 52] | – | – | – | 209% | – |
| COc1cc2cc(CO)c(CO)c(-c3ccnc(-n4ccc5ccccc5c4=O)c3)c2cc1OC [Compound No. 56] | – | – | – | 168% | – |
